Source: US12351559B2 (Biohaven Therapeutics Ltd., priority 2014, dated 2025)

Each compound was assayed against T1, Kv7.2/7.3 (Homo sapiens, UniProt O43525+O43526) (assay: Kv7.2/7.3 activation assay, QPatch planar patch-clamp, single concentration screen). Conditions: Kv7.2/Kv7.3 co-expressing HEK cells, compound 3 μM, steady-state current at end of 2 s pulse to −30 mV.
T1 construct: host or cells: HEK cells, tetracycline-inducible expression
Format: cell-based
Parameters: key: <1.2-fold increase over baseline (−); +/−: as a range from <1.2-fold increase over baseline (−) up to >6-fold increase over baseline (+++); as a range from <1.2-fold increase over baseline (−) up to >6-fold increase over baseline (+++); as a range from <1.2-fold increase over baseline (−) up to >6-fold increase over baseline (+++); >6-fold increase over baseline (+++)

Structure (SMILES) | Kv7.2/7.3 Activity: increase in current over baseline
CC(C)(C)CC(=O)Nc1nc2ccc(CC(C)(C)O)c(F)c2n1C1CCC1 [Example 114, N-(1-cyclobutyl-7-fluoro-6-(2-hydroxy-2-methylpropyl)-1H-benzo[d]imidazol-2-yl)-3,3-dimethylbutanamide] | +
N#Cc1ccc2nc(NC(=O)CC3(O)CCCC3)n(C3CCC3)c2c1 [Example 81, N-(6-cyano-1-cyclobutyl-1H-benzo[d]imidazol-2-yl)-2-(1-hydroxycyclopentyl)acetamide] | +
C[C@](O)(CC(=O)Nc1nc2ccc(C(F)(F)F)cc2n1C1CCC1)c1ccccc1 [Example 88, (S)-N-(1-cyclobutyl-6-(trifluoromethyl)-1H-benzo[d]imidazol-2-yl)-3-hydroxy-3-phenylbutanamide] | +
CC(C)(C)CC(=O)Nc1nc2ccc(C(C)(C)O)cc2n1C1CCC1 [Example 53, N-(1-cyclobutyl-6-(2-hydroxypropan-2-yl)-1H-benzo[d]imidazol-2-yl)-3,3-dimethylbutanamide] | +
Cc1cc2nc(NC(=O)CC(C)(C)O)n(C3CCC3)c2cc1C#N [Example 130, N-(6-cyano-1-cyclobutyl-5-methyl-1H-benzo[d]imidazol-2-yl)-3-hydroxy-3-methylbutanamide] | +/−
C[C@H](C(=O)Nc1nc2ccc(C(C)(C)O)cc2n1C1CCC1)C(C)(C)C [Example 86, (S)-N-(1-cyclobutyl-6-(2-hydroxypropan-2-yl)-1H-benzo[d]imidazol-2-yl)-2,3,3-trimethylbutanamide] | +++ (>6-fold increase over baseline (+++))
C[C@](O)(CC(=O)Nc1nc2ccc(C#N)cc2n1C1CCC1)c1ccccc1 [Example 29, (S)-N-(6-cyano-1-cyclobutyl-1H-benzo[d]imidazol-2-yl)-3-hydroxy-3-phenylbutanamide] | +
CC(O)(CC(=O)Nc1nc2ccc(C#N)cc2n1C1CCC1)C1CCCC1 (centres unmarked) [Example 80, N-(6-cyano-1-cyclobutyl-1H-benzo[d]imidazol-2-yl)-3-cyclopentyl-3-hydroxybutanamide] | +
CC(C)(O)c1ccc2nc(NC(=O)C3CCC(F)(F)C3)n(C3CCC3)c2c1 (centres unmarked) [Example 102, N-(1-cyclobutyl-6-(2-hydroxypropan-2-yl)-1H-benzo[d]imidazol-2-yl)-3,3-difluorocyclopentane-1-carboxamide] | +/−
O=C(Nc1nc2ccc(C(F)(F)F)cc2n1C1CCC1)C1CC(F)(F)C1 [Example 38, N-(1-cyclobutyl-6-(trifluoromethyl)-1H-benzo[d]imidazol-2-yl)-3,3-difluorocyclobutane-1-carboxamide] | +/−
C[C@@](O)(CC(=O)Nc1nc2ccc(C#N)cc2n1-c1ccc(F)cc1)c1ccccc1 [Example 70, (R)-N-(6-cyano-1-(4-fluorophenyl)-1H-benzo[d]imidazol-2-yl)-3-hydroxy-3-phenylbutanamide] | +/−
Cc1cc2nc(NC(=O)C[C@@](C)(O)c3ccccc3)n(C3CCC3)c2cc1C#N [Example 124, (R)-N-(6-cyano-1-cyclobutyl-5-methyl-1H-benzo[d]imidazol-2-yl)-3-hydroxy-3-phenylbutanamide] | +/−
CC1(C)C[C@@H]1C(=O)Nc1nc2ccc(Cl)cc2n1C1CCC1 [Example 58, (S)-N-(6-chloro-1-cyclobutyl-1H-benzo[d]imidazol-2-yl)-2,2-dimethylcyclopropane-1-carboxamide] | +
C[C@](O)(CC(=O)Nc1nc2ccc(C#N)cc2n1C1CCC1)c1ccccn1 [Example 20, (S)-N-(6-cyano-1-cyclobutyl-1H-benzo[d]imidazol-2-yl)-3-hydroxy-3-(pyridin-2-yl)butanamide] | +
CC(O)(CC(=O)Nc1nc2ccc(C#N)cc2n1C1CCC1)c1ccccc1 (centres unmarked) [Example 17, N-(6-cyano-1-cyclobutyl-1H-benzo[d]imidazol-2-yl)-3-hydroxy-3-phenylbutanamide] | ++
CN(C)C(=O)Cc1ccc2nc(NC(=O)CC(C)(C)C)n(C3CCC3)c2c1F [Example 118, N-(1-cyclobutyl-6-(2-(dimethylamino)-2-oxoethyl)-7-fluoro-1H-benzo[d]imidazol-2-yl)-3,3-dimethylbutanamide] | +
CC1(C)C[C@@H]1C(=O)Nc1nc2ccc(C#N)cc2n1-c1ccc(F)cc1 [Example 33, (S)-N-(6-cyano-1-(4-fluorophenyl)-1H-benzo[d]imidazol-2-yl)-2,2-dimethylcyclopropane-1-carboxamide] | +
CC(C)(C)CC(=O)Nc1nc2ccc(C(F)F)cc2n1C1CCC1 [Example 66, N-(1-cyclobutyl-6-(difluoromethyl)-1H-benzo[d]imidazol-2-yl)-3,3-dimethylbutanamide] | ++
C[C@](O)(CC(=O)Nc1nc2ccc(C#N)cc2n1C1CCC1)c1cccnc1 [Example 21, (S)-N-(6-cyano-1-cyclobutyl-1H-benzo[d]imidazol-2-yl)-3-hydroxy-3-(pyridin-3-yl)butanamide] | +/−
CC(O)c1ccc2nc(NC(=O)[C@@H](C)C(C)C)n(C3CCC3)c2c1 (stereo partly drawn) [Example 56, (2S)-N-(1-cyclobutyl-6-(1-hydroxyethyl)-1H-benzo[d]imidazol-2-yl)-2,3-dimethylbutanamide] | ++
Cc1cc2nc(NC(=O)C[C@](C)(O)c3ccc(F)cc3)n(C3CCC3)c2cc1C#N [Example 125, (S)-N-(6-cyano-1-cyclobutyl-5-methyl-1H-benzo[d]imidazol-2-yl)-3-(4-fluorophenyl)-3-hydroxybutanamide] | +/−
C[C@](O)(CC(=O)Nc1nc2ccc(C#N)cc2n1-c1ccc(F)cn1)c1ccccc1 [Example 79, (S)-N-(6-cyano-1-(5-fluoropyridin-2-yl)-1H-benzo[d]imidazol-2-yl)-3-hydroxy-3-phenylbutanamide] | +
CC(C)(C)CC(=O)Nc1nc2ccc(CO)cc2n1C1CCC1 [Example 51, N-(1-cyclobutyl-6-(hydroxymethyl)-1H-benzo[d]imidazol-2-yl)-3,3-dimethylbutanamide] | +
CC(O)(CC(=O)Nc1nc2ccc(C#N)cc2n1C1CCC1)C1CC1 (centres unmarked) [Example 28, N-(6-cyano-1-cyclobutyl-1H-benzo[d]imidazol-2-yl)-3-cyclopropyl-3-hydroxybutanamide] | +/−
O=C(CC1(O)CCC1)Nc1nc2ccc(C(F)(F)F)cc2n1-c1cc(F)cc(F)c1 [Example 141, N-(1-(3,5-difluorophenyl)-6-(trifluoromethyl)-1H-benzo[d]imidazol-2-yl)-2-(1-hydroxycyclobutyl)acetamide] | +
CC(C)(O)CC(=O)Nc1nc2cc(C(F)(F)F)cc(F)c2n1C1CCC1 [Example 133, N-(1-cyclobutyl-7-fluoro-5-(trifluoromethyl)-1H-benzo[d]imidazol-2-yl)-3-hydroxy-3-methylbutanamide] | +
